Test results as given in patent EP4186514A1, “PHARMACEUTICAL COMPOSITION FOR PREVENTING OR TREATING CHOLANGITIS OR LIVER DISEASE CAUSED BY CHOLANGITIS COMPRISING ADENOSINE DERIVATIVE” (Future Medicine Co., Ltd., priority 2021, dated 2023).

Assays:
rats = conditions: rat, in vivo
Description: In order to test the single-dose toxicity of the compound of the formula A, a single dose of 2,000 mg/kg of the compound of the formula A was administered to each of five male rats and five female rats.

[1] = system: histidine-requiring Salmonella (strains TA98, TA100, TA1535 and TA1537) and tryptophan-requiring Escherichia coli (strain WP2uvrA (pKM101)); format: cell-based
Description: In order to test the genotoxicity of the compound of the formula A, the gene mutagenicity of the compound of the formula A was evaluated in the presence and absence of metabolic activation by using histidine-requiring Salmonella (strains TA98, TA100, TA1535 and TA1537) and tryptophan-requiring Escherichia coli (strain WP2uvrA (pKM101)).

[2] = Pharmacokinetic test in dogs (Experimental Example 6); format: in vivo; conditions: dog, plasma, maximum (Experimental Example 6), read-out: half-life T1/2
Description: In order to test the ADME properties of the adenosine derivative of the inventive concept after oral administration, pharmacokinetic properties of the compound of the formula A were measured in vivo.
Intravenous administration was performed through a tube inserted into the femoral vein, and oral administration was performed using oral gavage.
(§1) After the administration, the experimental animals' blood was taken at predetermined time intervals for 24 hours. Then, the blood was centrifuged to separate plasma. The plasma samples were pretreated with a suitable organic solvent, and then the concentration of the plasma samples was analyzed by LC-MS/MS. The blood concentration-time data of the compound of the formula A was analyzed using WinNonlin (Pharsight, USA), and graphs of the blood concentration-time data are shown in FIGS. 5 through 9. The results of noncompartmental pharmacokinetic parameters calculated from the blood concentration-time data are shown in Tables 5 through 9. In FIGS. 5 through 9, I.V. represents an intravenous administration group, P.O. represents an oral administration group, and the definition of each parameter in Tables 5 through 9 is shown in Table 10.
FIG. 8 and Table 8 show a graph and parameter values obtained from the blood concentration-time data of Experimental Example 6 (6-1, 6-2 and 6-3). […]

[3] = Plasma stability, rat plasma; format: in vitro ADME
Description: (§2) In order to test the physicochemical properties of the adenosine derivative of the inventive concept, experiments were conducted on the compound of the formula A in vitro, and the results are shown in Table 3. Plasma stability and protein binding were measured using rat and human plasma.

PAMPA = format: in vitro ADME
Description: as §2

[4] = Plasma stability, human plasma; format: in vitro ADME
Description: as §2

A2A adenosine receptor = target: T1, A2A adenosine receptor (Homo sapiens, UniProt P29274); experiment: Radioligand binding affinity, A2A adenosine receptor ([3H]CGS-21680, HEK 293 cell); conditions: percentage inhibition of specific binding of 10 µM
T1 construct: expressed in transfected cells; host or cells: HEK 293 cell
Description: The adenosine derivatives of the present invention were assayed for binding affinity and selectivity for A1, A2A and A3 receptors among human adenosine receptor (hAR) as follows.
Adenosine deaminase was added alone or in combination with a radioactive ligand when cerebral meninges were incubated at 30° C. for 30 min. Each of the compounds synthesized in the examples was measured for IC50 at least 6 different concentrations, and the measurements were analyzed using SigmaPlot software to determine Ki values.

[5] = Pharmacokinetic test in mice (Experimental Example 5); format: in vivo; conditions: male, ICR, mouse, plasma, oral administration of 10 mg/kg, read-out: half-life T1/2 (converted)
Description: as §1, with “In order to test the ADME properties of the adenosine derivative of the inventive concept after oral administration, pharmacokinetic properties of the compound of the formula A were measured in vivo. […] Intravenous administration was performed through a tube inserted into the femoral vein, and oral administration was performed using oral gavage. [Table 4] [table] After” for “After”, “10. FIG. 7 and Table 7 show a graph and parameter values obtained from the blood concentration-time data of Experimental Example 5. […] Thus, the adenosine derivative is suitable for oral administration.” for “10.”

Kinetic solubility = format: physicochemical; conditions: listed as compound of the formula A
Description: as §2

A1 adenosine receptor = target: T2, A1 adenosine receptor (Homo sapiens, UniProt P30542); experiment: Radioligand binding affinity, A1 adenosine receptor ([3H]CCPA, CHO cells); set-up: % hA1: dose or concentration left out as unconfirmed; conditions: percentage inhibition of specific binding of [3H]CCPA
T2 construct: expressed in transfected cells; host or cells: CHO cells (ATCC No. CCL-61)
T2 sequence (P30542 1-326): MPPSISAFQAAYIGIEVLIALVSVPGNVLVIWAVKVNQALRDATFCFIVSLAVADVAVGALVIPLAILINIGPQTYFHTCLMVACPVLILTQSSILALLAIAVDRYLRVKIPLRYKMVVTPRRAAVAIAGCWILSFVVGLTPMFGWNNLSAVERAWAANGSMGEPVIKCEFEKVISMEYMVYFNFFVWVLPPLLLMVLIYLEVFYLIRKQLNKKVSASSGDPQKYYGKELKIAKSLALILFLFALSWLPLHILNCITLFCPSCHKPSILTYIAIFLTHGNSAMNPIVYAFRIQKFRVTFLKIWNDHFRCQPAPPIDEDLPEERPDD
Description: CHO cells (ATCC No. CCL-61), in which A1 and A3 adenosine receptors were expressed, were cultured in F-12 media (Gibco, U.S.A.) supplemented with 10% fetal bovine serum (FBS) and penicillin/streptomycin (100 units/ml and 100 g/ml), at 37° C. in a 5% CO2 atmosphere. […] Incubation for 1 hr in a 37° C. incubator was followed by rapid filtration in a vacuum using a cell collector (TOMTEC, U.S.A.). Subsequently, the test tubes were washed three times with 3 ml of the buffer before radioactivity was measured using a γ-counter. […] Ki for binding affinity was determined by subtracting the non-specific binding value from the total binding value. On the basis of the specific binding values, the samples were analyzed for binding affinity to various adenosine receptors.

hERG channel protein = hERG channel protein (Homo sapiens, UniProt Q12809); experiment: hERG ligand binding assay (fluorescence polarization)
Description: In order to test the hERG ligand binding assay of the compound of the formula A, a non-electrophysiological method was used to evaluate heart stability by evaluating fluorescence polarization according to the degree of hERG channel protein binding of a red fluorescent hERG channel ligand tracer.

Sprague Dawley rats = experiment: Toxicity after intraperitoneal injection, rats; format: in vivo; conditions: intraperitoneal 20, 10 and 1 mg/kg
Description: (§3) The Adenosine Derivative of the present invention were assayed for cytotoxicity in animals.

each cell line = experiment: Cytotoxicity, Cyto X cell viability assay kit; format: cell-based; conditions: summary Table 11
[6] = Cytotoxicity, Cyto X cell viability assay kit; format: cell-based; conditions: in each cell line
ICR mice = experiment: Toxicity after intraperitoneal injection, mice; format: in vivo; conditions: intraperitoneal 20, 10 and 1 mg/kg
Description: as §3

Sequence of hERG channel protein (Q12809 whole entry): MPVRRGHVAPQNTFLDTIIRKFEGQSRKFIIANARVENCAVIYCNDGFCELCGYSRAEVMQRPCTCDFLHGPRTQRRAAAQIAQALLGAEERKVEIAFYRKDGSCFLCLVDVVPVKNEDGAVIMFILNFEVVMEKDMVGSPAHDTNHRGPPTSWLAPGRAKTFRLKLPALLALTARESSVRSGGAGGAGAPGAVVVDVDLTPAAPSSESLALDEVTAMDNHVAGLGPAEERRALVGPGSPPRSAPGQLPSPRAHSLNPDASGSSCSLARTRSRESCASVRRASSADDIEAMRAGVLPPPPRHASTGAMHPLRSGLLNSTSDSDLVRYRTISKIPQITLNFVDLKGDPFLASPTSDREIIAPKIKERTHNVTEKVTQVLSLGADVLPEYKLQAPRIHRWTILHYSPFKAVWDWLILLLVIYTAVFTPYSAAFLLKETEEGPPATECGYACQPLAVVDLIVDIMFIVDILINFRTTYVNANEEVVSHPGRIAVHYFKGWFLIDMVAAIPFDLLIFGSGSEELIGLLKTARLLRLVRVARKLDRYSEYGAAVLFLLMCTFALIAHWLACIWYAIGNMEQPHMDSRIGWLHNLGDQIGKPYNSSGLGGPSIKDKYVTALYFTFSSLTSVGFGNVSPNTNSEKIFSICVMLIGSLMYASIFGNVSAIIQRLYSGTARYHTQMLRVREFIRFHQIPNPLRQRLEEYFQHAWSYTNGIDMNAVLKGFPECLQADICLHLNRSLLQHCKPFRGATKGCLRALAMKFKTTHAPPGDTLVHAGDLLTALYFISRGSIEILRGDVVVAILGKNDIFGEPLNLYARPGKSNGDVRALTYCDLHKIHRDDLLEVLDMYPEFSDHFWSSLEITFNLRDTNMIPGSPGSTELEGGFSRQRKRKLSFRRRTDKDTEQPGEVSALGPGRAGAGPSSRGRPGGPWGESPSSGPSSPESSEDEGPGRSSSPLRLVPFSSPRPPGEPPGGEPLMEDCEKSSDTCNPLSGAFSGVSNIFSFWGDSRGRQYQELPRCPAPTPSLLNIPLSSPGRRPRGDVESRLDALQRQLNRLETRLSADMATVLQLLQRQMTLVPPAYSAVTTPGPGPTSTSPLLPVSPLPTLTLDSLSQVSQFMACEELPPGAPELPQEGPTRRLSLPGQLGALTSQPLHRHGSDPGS
T1 sequence (P29274 whole entry): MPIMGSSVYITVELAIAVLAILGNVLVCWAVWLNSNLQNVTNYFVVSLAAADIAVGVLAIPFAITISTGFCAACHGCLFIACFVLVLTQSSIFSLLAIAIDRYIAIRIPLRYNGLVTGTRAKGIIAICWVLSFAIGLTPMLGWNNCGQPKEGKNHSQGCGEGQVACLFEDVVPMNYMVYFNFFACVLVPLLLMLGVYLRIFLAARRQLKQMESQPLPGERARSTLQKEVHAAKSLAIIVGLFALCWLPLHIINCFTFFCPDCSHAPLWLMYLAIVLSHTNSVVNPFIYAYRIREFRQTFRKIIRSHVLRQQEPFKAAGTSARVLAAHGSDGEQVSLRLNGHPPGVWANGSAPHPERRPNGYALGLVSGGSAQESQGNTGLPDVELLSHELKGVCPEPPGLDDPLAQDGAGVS

O[C@@H]1[C@H](O)CS[C@H]1n1cnc2c(NCc3cccc(Cl)c3)nc(Cl)nc21 [Example 2, (2R,3R,4S)-2-(2-chloro-6-(3-chlorobenzylamino)-9H-purin-9-yl)tetrahydrothiophen-3,4-diol]
death after single dose (rats): no animals died
number of back-mutant colonies versus negative control group ([1]; all doses of each strain, regardless of the metabolic activation): did not exceed twice the number of back-mutant colonies of the negative control group
dose-dependent increase of back-mutant colonies ([1]; each strain, presence and absence of metabolic activation): no dose-dependent increase was observed
Toxicity, Genotoxicity evaluation ([1]; summary Table 11): Not detected
half-life [2]: ≥ 5.53 h
Plasma stability [3]: > 99.9
PAMPA (PAMPA): -4.49
Plasma stability [4]: 98.9
% hA2A (A2A adenosine receptor): 17.7%
half-life [5]: ~3.61 h
Kinetic solubility (Kinetic solubility): 0.1488 mg/mL
% hA1 (A1 adenosine receptor): 37.9%
inhibition rate (hERG ligand binding) (hERG channel protein; 10 µM of the compound): ≤ 50%
Toxicity, hERG ligand binding assay evaluation (hERG channel protein; summary Table 11): Not detected
weight gain or feed intake versus control group (Sprague Dawley rats): No difference
death (Sprague Dawley rats; observation for 24 hrs): No death was observed
Toxicity, Cytotoxicity evaluation (each cell line): Not detected
IC50 [6]: ≥ 10 µM
weight gain or feed intake versus control group (ICR mice): No difference
death (ICR mice; observation for 24 hrs): No death was observed
